Consider 24 molecules from ChEMBL document CHEMBL5550145, “Synthesis and cytotoxicity evaluation of d- and l-sugar-containing mono- and bidesmosidic ursane-type saponins” (Bioorg Med Chem, 2024).

Bounds are passed on as bounds.

For one data set, the system named is A549. Put plainly: Cytotoxicity against human A549 cells assessed as inhibition of cell growth measured after 48 hrs by Hoechst 33258 staining based fluorescence assay. Particulars: A549, 48 h. The data set is classed as functional.
Another data set concerns DLD-1. Nature of the data set: Cytotoxicity against human DLD-1 cells assessed as inhibition of cell growth measured after 48 hrs by Hoechst 33258 staining based fluorescence assay. It is filed as functional. The settings on record: DLD-1, 48 h.
Data set [1] is described as follows: Cytotoxicity against human WS1 cells assessed as inhibition of cell growth measured after 48 hrs by Hoechst 33258 staining based fluorescence assay. The data set is classed as toxicity.

`C[C@H]1[C@H](C)CC[C@]2(C(=O)O)CC[C@]3(C)C(=CC[C@@H]4[C@@]5(C)CC[C@H](O[C@H]6OC[C@@H](O)[C@H](O)[C@@H]6O)C(C)(C)[C@@H]5CC[C@]43C)[C@H]12`: the IC50 in the data set on A549 worked out at 9 µM; in the data set on DLD-1, 6.4 µM. For the same molecule, the IC50 at 48 h in data set [1] stood at 4.6 µM.

Take `C[C@H]1[C@H](C)CC[C@]2(CO[C@H]3O[C@@H](C)[C@@H](O)[C@@H](O)[C@@H]3O)CC[C@]3(C)C(=CC[C@@H]4[C@@]5(C)CC[C@H](O[C@H]6O[C@@H](C)[C@@H](O)[C@@H](O)[C@@H]6O)C(C)(C)[C@@H]5CC[C@]43C)[C@H]12`: the IC50 with A549 stood at 104 µM; with DLD-1, 48 µM. Moreover, the IC50 at 48 h in data set [1] was determined as 62 µM.

Regarding `C[C@H]1[C@H](C)CC[C@]2(C(=O)O)CC[C@]3(C)C(=CC[C@@H]4[C@@]5(C)CC[C@H](O[C@H]6O[C@@H](C)[C@@H](O)[C@@H](O)[C@@H]6O)C(C)(C)[C@@H]5CC[C@]43C)[C@H]12`, the IC50 stood at 3.7 µM with A549 and 15 µM in the data set with DLD-1. Further, in data set [1], the IC50 at 48 h came to 7.2 µM.

Turning to `C[C@H]1[C@H](C)CC[C@]2(C(=O)O)CC[C@]3(C)C(=CC[C@@H]4[C@@]5(C)CC[C@H](O[C@@H]6OC[C@H](O)[C@@H](O)[C@H]6O)C(C)(C)[C@@H]5CC[C@]43C)[C@H]12`, the IC50 in the data set with A549 is 39 µM; with DLD-1 it was 29 µM. In addition, in data set [1], the IC50 at 48 h is 20 µM.

In the case of `C[C@H]1[C@H](C)CC[C@]2(CO[C@@H]3OC[C@H](O)[C@@H](O)[C@@H]3O)CC[C@]3(C)C(=CC[C@@H]4[C@@]5(C)CC[C@H](O[C@H]6OC[C@H](O)[C@@H](O)[C@@H]6O)C(C)(C)[C@@H]5CC[C@]43C)[C@H]12`, the IC50 is 9.8 µM in the data set on A549 and more than 200 µM in the data set on DLD-1. Moreover, the IC50 at 48 h in data set [1] is more than 200 µM.

Take `C[C@H]1[C@H](C)CC[C@]2(CO[C@@H]3O[C@H](C)[C@H](O)[C@H](O)[C@H]3O)CC[C@]3(C)C(=CC[C@@H]4[C@@]5(C)CC[C@H](O[C@@H]6O[C@H](C)[C@H](O)[C@H](O)[C@H]6O)C(C)(C)[C@@H]5CC[C@]43C)[C@H]12`: the IC50 in the data set on A549 turned out to be 8.9 µM; in the data set with DLD-1 it was 12 µM. Besides, in data set [1], the IC50 at 48 h worked out at 16 µM.

With `C[C@H]1[C@H](C)CC[C@]2(CO[C@@H]3OC[C@@H](O)[C@H](O)[C@@H]3O)CC[C@]3(C)C(=CC[C@@H]4[C@@]5(C)CC[C@H](O[C@H]6OC[C@@H](O)[C@H](O)[C@@H]6O)C(C)(C)[C@@H]5CC[C@]43C)[C@H]12`, the IC50 in the data set on A549 was 34 µM; in the data set on DLD-1 it was 38 µM. Besides, the IC50 at 48 h in data set [1] is 10 µM.

Take `C[C@H]1[C@H](C)CC[C@]2(CO[C@@H]3O[C@@H](C)[C@H](O)[C@@H](O)[C@H]3O)CC[C@]3(C)C(=CC[C@@H]4[C@@]5(C)CC[C@H](O[C@@H]6O[C@@H](C)[C@H](O)[C@@H](O)[C@H]6O)C(C)(C)[C@@H]5CC[C@]43C)[C@H]12`: the IC50 in the data set with A549 was 4.5 µM; in the data set with DLD-1 it was 11 µM. Also, the IC50 at 48 h in data set [1] was 14 µM.

For the molecule `C[C@H]1[C@H](C)CC[C@]2(CO[C@@H]3OC[C@@H](O)[C@@H](O)[C@@H]3O)CC[C@]3(C)C(=CC[C@@H]4[C@@]5(C)CC[C@H](O[C@H]6OC[C@@H](O)[C@@H](O)[C@@H]6O)C(C)(C)[C@@H]5CC[C@]43C)[C@H]12`, the IC50 in the data set with A549 is 10 µM; with DLD-1, 16 µM. The IC50 at 48 h in data set [1] was found to be 20 µM.

For `C[C@H]1[C@H](C)CC[C@]2(CO[C@H]3O[C@H](C)[C@@H](O)[C@H](O)[C@@H]3O)CC[C@]3(C)C(=CC[C@@H]4[C@@]5(C)CC[C@H](O[C@H]6O[C@H](C)[C@@H](O)[C@H](O)[C@@H]6O)C(C)(C)[C@@H]5CC[C@]43C)[C@H]12`, the values for the IC50 in the data set with A549 and with DLD-1 were 104 µM and 109 µM, respectively. Besides, the IC50 at 48 h in data set [1] is more than 200 µM.

In the case of `C[C@H]1[C@H](C)CC[C@]2(CO)CC[C@]3(C)C(=CC[C@@H]4[C@@]5(C)CC[C@H](O)C(C)(C)[C@@H]5CC[C@]43C)[C@H]12` [UVAOL], the IC50 in the data set on A549 and with DLD-1 was more than 200 µM each time. For the same molecule, the IC50 at 48 h in data set [1] was more than 200 µM.

Consider `C[C@H]1[C@H](C)CC[C@]2(CO[C@H]3OC[C@H](O)[C@@H](O)[C@H]3O)CC[C@]3(C)C(=CC[C@@H]4[C@@]5(C)CC[C@H](O[C@@H]6OC[C@H](O)[C@@H](O)[C@H]6O)C(C)(C)[C@@H]5CC[C@]43C)[C@H]12`, for which the values for the IC50 in the data set on A549 and in the data set on DLD-1 were 15 µM and 57 µM, respectively. For the same molecule, in data set [1], the IC50 at 48 h worked out at 60 µM.

Consider `C[C@H]1[C@H](C)CC[C@]2(CO[C@H]3OC[C@@H](O)[C@H](O)[C@H]3O)CC[C@]3(C)C(=CC[C@@H]4[C@@]5(C)CC[C@H](O[C@@H]6OC[C@@H](O)[C@H](O)[C@H]6O)C(C)(C)[C@@H]5CC[C@]43C)[C@H]12`, for which the IC50 in the data set with A549 stood at 15 µM; with DLD-1, 14.9 µM. For the same molecule, in data set [1], the IC50 at 48 h was 20 µM.

For `C[C@H]1[C@H](C)CC[C@]2(C(=O)O)CC[C@]3(C)C(=CC[C@@H]4[C@@]5(C)CC[C@H](O[C@@H]6O[C@@H](C)[C@H](O)[C@@H](O)[C@H]6O)C(C)(C)[C@@H]5CC[C@]43C)[C@H]12`, the values for the IC50 with A549 and in the data set on DLD-1 were 14 µM and 11 µM, respectively. Further, the IC50 at 48 h in data set [1] was 8.5 µM.

As for `C[C@H]1[C@H](C)CC[C@]2(C(=O)O)CC[C@]3(C)C(=CC[C@@H]4[C@@]5(C)CC[C@H](O)C(C)(C)[C@@H]5CC[C@]43C)[C@H]12` [URSOLIC ACID], the IC50 with A549 and in the data set on DLD-1 was 16 µM throughout. Further, the IC50 at 48 h in data set [1] worked out at 13.1 µM.

For `C[C@H]1[C@H](C)CC[C@]2(C(=O)O)CC[C@]3(C)C(=CC[C@@H]4[C@@]5(C)CC[C@H](O[C@H]6O[C@H](C)[C@@H](O)[C@H](O)[C@@H]6O)C(C)(C)[C@@H]5CC[C@]43C)[C@H]12`, the figures for the IC50 in the data set on A549 and in the data set with DLD-1 were 65 µM and 61 µM, respectively. Further, the half-maximal inhibitory concentration (IC50) at 48 h in data set [1] was determined as 77 µM.

For the molecule `C[C@H]1[C@H](C)CC[C@]2(C(=O)O)CC[C@]3(C)C(=CC[C@@H]4[C@@]5(C)CC[C@H](O[C@H]6OC[C@H](O)[C@@H](O)[C@@H]6O)C(C)(C)[C@@H]5CC[C@]43C)[C@H]12`, the IC50 with A549 came to 35 µM; in the data set on DLD-1, 36 µM. In addition, the IC50 at 48 h in data set [1] came to 30 µM.

Turning to `C[C@H]1[C@H](C)CC[C@]2(C(=O)O)CC[C@]3(C)C(=CC[C@@H]4[C@@]5(C)CC[C@H](O[C@@H]6OC[C@H](O)[C@H](O)[C@H]6O)C(C)(C)[C@@H]5CC[C@]43C)[C@H]12`, the IC50 was found to be 3.5 µM in the data set with A549 and 3.8 µM with DLD-1. Moreover, the IC50 at 48 h in data set [1] was determined as 5.9 µM.

Consider `C[C@H]1[C@H](C)CC[C@]2(C(=O)O)CC[C@]3(C)C(=CC[C@@H]4[C@@]5(C)CC[C@H](O[C@@H]6O[C@H](C)[C@H](O)[C@H](O)[C@H]6O)C(C)(C)[C@@H]5CC[C@]43C)[C@H]12`, for which the results for the IC50 with A549 and with DLD-1 were 7 µM and 15 µM, respectively. For the same molecule, the IC50 at 48 h in data set [1] came to 13.1 µM.

Consider `C=C(C)[C@@H]1CC[C@]2(CO[C@@H]3O[C@@H](C)[C@H](O)[C@@H](O)[C@H]3O)CC[C@]3(C)[C@H](CC[C@@H]4[C@@]5(C)CC[C@H](O[C@@H]6O[C@@H](C)[C@H](O)[C@@H](O)[C@H]6O)C(C)(C)[C@@H]5CC[C@]43C)[C@@H]12`, for which, in the data set with A549, the IC50 turned out to be 1.07 µM. Besides, the IC50 at 48 h in data set [1] turned out to be 1.42 µM.

For `C[C@H]1[C@H](C)CC[C@]2(C(=O)O)CC[C@]3(C)C(=CC[C@@H]4[C@@]5(C)CC[C@H](O[C@@H]6OC[C@@H](O)[C@H](O)[C@H]6O)C(C)(C)[C@@H]5CC[C@]43C)[C@H]12`, the values for the IC50 in the data set on A549 and with DLD-1 were 7.4 µM and 7 µM, respectively. Moreover, in data set [1], the IC50 at 48 h was found to be 9 µM.

In the case of `C[C@H]1[C@H](C)CC[C@]2(CO[C@H]3OC[C@H](O)[C@H](O)[C@H]3O)CC[C@]3(C)C(=CC[C@@H]4[C@@]5(C)CC[C@H](O[C@@H]6OC[C@H](O)[C@H](O)[C@H]6O)C(C)(C)[C@@H]5CC[C@]43C)[C@H]12`, the IC50 with A549 stood at 8.9 µM; in the data set with DLD-1, 31 µM. For the same molecule, the 50% inhibitory concentration (IC50) at 48 h in data set [1] was found to be 37 µM.

Turning to `COc1cc([C@@H]2c3cc4c(cc3[C@@H](O[C@@H]3O[C@@H]5CO[C@@H](C)O[C@H]5[C@H](O)[C@H]3O)[C@H]3COC(=O)[C@H]23)OCO4)cc(OC)c1O` [ETOPOSIDE], the IC50 with A549 was 1.9 µM; in the data set on DLD-1 it was 5.1 µM. For the same molecule, the IC50 at 48 h in data set [1] is more than 50 µM.

For `C[C@H]1[C@H](C)CC[C@]2(C(=O)O)CC[C@]3(C)C(=CC[C@@H]4[C@@]5(C)CC[C@H](O[C@H]6OC[C@@H](O)[C@@H](O)[C@@H]6O)C(C)(C)[C@@H]5CC[C@]43C)[C@H]12`, the values for the IC50 in the data set on A549 and with DLD-1 were 9 µM and 7.9 µM, respectively. Also, in data set [1], the IC50 at 48 h was 10 µM.
